Assay results taken from patent US20110081428A1, “Use of thioflavin-like compounds to increase life span and/or health span” (priority 2009, published 2011).

What was measured:
[1] = test system: wildtype (N2) C. elegans; experiment: Demographic analysis of age-specific mortality (Gompertz); type: in vivo, Caenorhabditis elegans; details: 50 μM ThT, p<0.001
Experimental: Data are presented as bends/min and represent the average of three independent experiments. *p<0.0001. e) Dose-response Kaplan-Meier survival curves of synchronously ageing hermaphrodite N2 populations exposed to 0 (control) to […], f) HBX and g) HBT at 20° C. (−) Control, (▪) 1 nM, ([…]) 10 μM, (▴) 100 μM, (▾) […]. Graphs are representative of three independent experiments.
Estimates of initial mortality rate and rate of increase with age and model fitting were made using WinModest. Gompertz mortality curves, ln(ux)=ln(a)+bx, where ux defines the age-specific hazard, were fitted with log-likelihood ratios used to examined the effects of constraining the intercept (a) or gradient (b) variables.

[2] = test system: wildtype (N2) C. elegans; experiment: Lifespan assay, wildtype worms; type: in vivo
Experimental: Lifespan assays were performed as described previously. (McColl, G. et al. Pharmacogenetic analysis of lithium-induced delayed aging in Caenorhabditis elegans. J Biol Chem 283, 350-357 (2008). Briefly, the nematode growth media (NGM) plates were prepared under sterile conditions. 100 μL of concentrated stocks of each of the compounds used in this study were added onto a previously prepared NGM small plate (3 mL volume) immediately spread over the surface of the plate. The final concentrations quoted in the text assume an even distribution of compound throughout the 3 ml plate. The plates were then placed in a laminar flow hood at room temperature for 30 min and then 60 μL of a concentrated suspension of E. coli OP50 was spotted to form a circular lawn on the center of each plate. […] The first day of adulthood is Day 3 in survival curves. There was between-experiment variation in the magnitude of the lifespan extension observed with ThT which appeared to correlate with different suppliers and batches. ThT concentration should be optimized depending on batch and purity and stability of the compound. […] The optimal range for lifespan extension was between 25 and 75 μM.
Animals were scored as alive, dead or lost every other day. […] Animals that died from causes other than ageing, such as sticking to the plate walls, internal hatching of eggs (“bagging”) or gonadal extrusion were censored as were lost worms. Animals were transferred to fresh plates every 3-6 days. All lifespan experiments were performed at 20° C. unless otherwise stated. Survival curves were plotted and statistical analyses (log-rank test) were performed using the Prism 4 software (Graphpad™ Software, Inc., San Diego, Calif., USA).

[3] = test system: CF1038 [daf-16(mu86)I]; experiment: Lifespan assay, daf-16 mutant; type: in vivo, Caenorhabditis elegans; details: 50 μM ThT, 100 μM curcumin
Experimental: Lifespan assays were performed as described previously. (McColl, G. et al. Pharmacogenetic analysis of lithium-induced delayed aging in Caenorhabditis elegans. J Biol Chem 283, 350-357 (2008). Briefly, the nematode growth media (NGM) plates were prepared under sterile conditions. 100 μL of concentrated stocks of each of the compounds used in this study were added onto a previously prepared NGM small plate (3 mL volume) immediately spread over the surface of the plate. The final concentrations quoted in the text assume an even distribution of compound throughout the 3 ml plate. The plates were then placed in a laminar flow hood at room temperature for 30 min and then 60 μL of a concentrated suspension of E. coli OP50 was spotted to form a circular lawn on the center of each plate. Thirty late L4 larvae growing at 20° C. were transferred to fresh NGM plates with FUdR (75 μM) in presence or absence of the specified compounds and incubated at 20° C. The first day of adulthood is Day 3 in survival curves. There was between-experiment variation in the magnitude of the lifespan extension observed with ThT which appeared to correlate with different suppliers and batches. ThT concentration should be optimized depending on batch and purity and stability of the compound. […]
Animals were scored as alive, dead or lost every other day. […]

[4] = test system: HSP-70; experiment: Western blot HSP-70; type: in vivo, Caenorhabditis elegans; details: 50 μM ThT, 4 and 7 days of treatment
Experimental: Peptide corresponding to amino acids 110-145 ([…]; SEQ ID NO:1) of HSP-16.2 was used to commercially synthesize antiserum (Invitrogen). Briefly, KLH-peptide was emulsified by mixing with an equal volume of Freund's adjuvant and injected into three subcutaneous dorsal sites for a total of 0.1 mg of peptide for immunization. The animals (rabbits) were bled, the blood allowed to clot and the serum collected by centrifugation. Monoclonal HSP-70 and Polyclonal HSF-1 primary antibodies were from stressgen (N27F3-4 and SPA-901, respectively).
Worms were transferred to siliconized eppendorf tubes, washed once in S-basal and frozen in liquid N2. Standard SDS-PAGE was performed using (4-12%) NOVEX gels and IVIES running buffer. Following transfer PVDF (BioRad) membranes were incubated with antisera (1:10000) or primary antibodies (1:1000) diluted in blocking buffer and then with secondary, goat anti-rabbit IgG antibody/horseradish peroxidase conjugate (Pierce), diluted 1:25000. Detection was undertaken with chemiluminescent reagents (SuperSignal, Pierce) and standard autoradiography.

[5] = absence of FUdR, 50 μM, 20° C., 4 independent experiments
[6] = sterile N2 worms, 50 or 100 μM throughout adult life

Cc1ccc2c(c1)sc(-c1ccc(N(C)C)cc1)[n+]2C.[Cl-] [ThT, 4-(3,6-dimethyl-1,3-benzothiazol-3-ium-2-yl)-N,N-dimethylaniline chloride]
age-specific mortality [1]: reduced age-specific mortality at all ages
effect on lifespan at higher doses ([2]; 500 μM): appears toxic and significantly shortens lifespan
Average increase in median lifespan [2, 5]: 40%
increase in median lifespan, range over experiments [2, 5]: 30-70%
increase in maximal lifespan [2, 6]: 43-78%
increase in median lifespan [2, 6]: 60%
lifespan of daf-16(mu86) mutant [3]: extended the lifespan
HSP-70 protein levels [4]: up-regulated
